Measured values: ChEMBL document CHEMBL1132708, “Synthesis and voltage-clamp studies of methyl 1,4-dihydro-2, 6-dimethyl-5-nitro-4-(benzofurazanyl)pyridine-3-carboxylate racemates and enantiomers and of their benzofuroxanyl analogues” (J Med Chem, 1999)

Key:
Format in all cases: functional
[1] = molecular target: T1, Voltage-gated L-type calcium channel (Rattus norvegicus, UniProt P22002+Q02485+P27732); assay: Percent increase in current at -20 mV on L-type [Ca2+] channels in rat RIN-m5F at 3 insulinoma cells (n = 8)
[2] = molecular target: T1, Voltage-gated L-type calcium channel; assay: Percent increase in current at -20 mV on L-type [Ca2+] channels in rat RIN-m5F at 3 insulinoma cells (n = 5)
[3] = molecular target: T1, Voltage-gated L-type calcium channel; assay: Percent block of total Ba2+ current on L-type [Ca2+] channels in rat RIN-m5F at 3 insulinoma cells (n = 12)

`CO/C(O)=C1\C(C)=NC(C)=C([N+](=O)[O-])C1c1ccc2nonc2c1` (racemic) showed an Increase [1] of 247%.
With `CO/C(O)=C1\C(C)=NC(C)=C([N+](=O)[O-])C1c1ccc2nonc2c1` (single isomer, unassigned; (+)) the Increase [2] was 224%.
For `CO/C(O)=C1\C(C)=NC(C)=C([N+](=O)[O-])C1c1cccc2nonc12` (single isomer, unassigned; (+)), the Increase [3] was 164%.
